Results reported in ChEMBL document CHEMBL2331296, “Synthesis of tetrahydroxybiphenyls and tetrahydroxyterphenyls and their evaluation as amyloid-β aggregation inhibitors” (Bioorg Med Chem Lett, 2013).
Active and inactive are the calls of the source. The calls are words filed in the database; no cut-off is given here.

Legend:
[1] = molecular target: T1, Amyloid-beta precursor protein (Homo sapiens, UniProt P05067); assay: Displacement of congo red from amyloid-beta40 (unknown origin) assessed as reduction of congo red-amyloid beta40 complex level; set-up: scale not given: the % may be the effect or the level left
T1 sequence (P05067 whole entry): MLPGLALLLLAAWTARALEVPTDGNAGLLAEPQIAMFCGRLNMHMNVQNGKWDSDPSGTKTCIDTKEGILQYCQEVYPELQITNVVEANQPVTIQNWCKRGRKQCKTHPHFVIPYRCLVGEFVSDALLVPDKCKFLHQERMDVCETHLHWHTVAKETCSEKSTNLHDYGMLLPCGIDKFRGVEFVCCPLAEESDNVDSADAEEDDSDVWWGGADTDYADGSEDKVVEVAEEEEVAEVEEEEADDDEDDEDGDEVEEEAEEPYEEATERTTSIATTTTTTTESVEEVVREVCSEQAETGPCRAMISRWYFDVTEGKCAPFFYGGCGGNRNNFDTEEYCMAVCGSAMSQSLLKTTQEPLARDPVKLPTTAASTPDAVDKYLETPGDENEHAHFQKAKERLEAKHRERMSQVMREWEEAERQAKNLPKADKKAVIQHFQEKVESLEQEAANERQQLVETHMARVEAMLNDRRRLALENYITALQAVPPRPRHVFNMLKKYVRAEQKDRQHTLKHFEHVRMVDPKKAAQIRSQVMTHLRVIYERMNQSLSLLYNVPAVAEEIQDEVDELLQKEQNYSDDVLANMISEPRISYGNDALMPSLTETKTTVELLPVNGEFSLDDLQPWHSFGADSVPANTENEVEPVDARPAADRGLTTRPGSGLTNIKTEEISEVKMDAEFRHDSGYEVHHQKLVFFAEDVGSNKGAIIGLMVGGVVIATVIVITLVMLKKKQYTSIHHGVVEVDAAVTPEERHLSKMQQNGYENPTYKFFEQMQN

[2] = molecular target: T1, Amyloid-beta precursor protein; assay: Inhibition of amyloid-beta40 (unknown origin) aggregation by congo red spectral-shift assay
[3] = molecular target: T1, Amyloid-beta precursor protein; assay: Inhibition of amyloid-beta40 (unknown origin) aggregation at 250 uM by congo red spectral-shift assay

Activity [1] [%]	IC50 [2] [µM]	Activity [3]	SMILES
2.6	25	–	Oc1ccc(-c2ccc(O)c(O)c2)cc1O
2.6	92.5	inactive	Oc1ccc(-c2cccc(-c3ccc(O)c(O)c3)c2)cc1O
–	–	Active	Oc1ccc(-c2ccc(-c3ccc(O)c(O)c3)cc2)cc1O
2.6	67.5	inactive	Oc1ccc(-c2ccccc2-c2ccc(O)c(O)c2)cc1O
